Source: patent US6576620B2, “Method of identifying partial adenosine A1 receptor agonists” (CV Therapeutics, Inc., priority 1999, dated 2003)

Target: T1, A1-AdoR (Rattus norvegicus, UniProt P25099)
T1 sequence (P25099 1-326): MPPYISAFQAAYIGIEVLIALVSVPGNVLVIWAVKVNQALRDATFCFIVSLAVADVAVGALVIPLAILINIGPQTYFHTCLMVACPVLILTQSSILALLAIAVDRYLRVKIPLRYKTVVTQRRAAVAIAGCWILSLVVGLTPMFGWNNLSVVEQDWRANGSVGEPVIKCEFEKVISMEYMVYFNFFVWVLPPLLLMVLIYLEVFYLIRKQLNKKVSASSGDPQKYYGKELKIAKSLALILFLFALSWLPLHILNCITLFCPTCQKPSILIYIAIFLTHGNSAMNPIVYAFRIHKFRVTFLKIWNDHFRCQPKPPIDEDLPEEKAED
Experiment: 3H-CPX binding to rat adipocyte membranes
Conditions: for IC50: IC50 to reduce the binding of 3H-CPX; for Ki: Ki for reduction of 3H-CPX binding
Experimental: Membranes containing A1-AdoRs for use in radioligand binding assays were prepared from guinea pig cerebral cortex or from rat isolated epididymal adipocytes. Freshly-isolated guinea pig brain cortical tissue was homogenized in ice-cold 50 mM Tris-HCl buffer (pH 7.4) using six up and down strokes of an ice-chilled Potter-Elvejhem tissue grinder and a motor-driven teflon™ pestle. A crude membrane preparation was isolated by centrifugation of the homogenate at 15,000×g for 20 min at 4° C. The membrane pellet was resuspended in fresh Tris buffer and pelleted again by centrifugation. The final membrane pellet was suspended in Tris buffer to achieve a protein content of 1.1-1.4 mg/ml and divided into aliquots for storage at −80° C. until needed for assays. Adipocytes were isolated from 10 epididymal fat pads and suspended in a homogenization buffer (pH 7.3) containing 250 mM sucrose, 20 mM HEPES, 1 mM EDTA, 10 μg/ml leupeptin, and 5 μg/ml pepstatin. Cells were homogenized using an ice-chilled Potter-Elvehjem tissue grinder and a motor-driven teflon™ pestle. Cell membranes were separated from fat by centrifugation of the homogenate for 5 min at 1000×g at 4° C. The infranate below the fat cake was removed and placed in a centrifuge tube. Membranes were collected by centrifugation of the infranate for 30 min at 20,000×g at 4° C. Membranes were resuspended in buffer (pH 7.1 at room temperature) containing 154 mM NaCl, 10 mM MgCl2, 50 mM HEPES, 1 mM EDTA, 5 μg/ml leupeptin, 5 μg/ml pepstatin, and 5 U/ml adenosine deaminase, and stored as aliquots in liquid nitrogen until needed for assays.
The binding affinity of experimental agonists high and low affinity states of the A1-ADOR was determined. […] The presence of GTP reduces the availability of high affinity binding sites on the GPCR. Thus, the method allows for a discrimination between high and low binding affinities.
After a 3 hour incubation at room temperature. the reaction was terminated by diluting the samples with ice-cold Tris buffer and immediate collection of membranes onto glass-fiber filters (Schleicher and Schuell, Keene, N.H.) by vacuum filtration using a cell harvester (Brandel, Gaithersburg, Md.). Filters were washed quickly three times with ice-cold buffer to remove unbound radioligand. Filter discs containing trapped membranes and bound radioligand were placed in 4 ml of scintillation cocktail and radioactivity of samples was quantified using a liquid scintillation counter. […] Results of radioligand binding assays were analyzed using the Prism program from GraphPad (San Diego, Calif.).

OC[C@H]1O[C@@H](n2cnc3c(NC4CCCC4)ncnc32)[C@H](O)[C@@H]1O [CPA, N^6-cyclopentyladenosine, reference compound]
Hill slope (absence of GTP): 0.88 | difference of IC50 in absence and presence of GTP (adipocyte membranes): 10 fold | Hill slope (presence of 1 mM GTP): 1.0

CNC(=O)OC[C@H]1OC(n2cnc3c(N[C@@H]4CCOC4)ncnc32)[C@H](O)[C@@H]1O (stereo partly drawn) [Compound 6 of Example 2, [(5-{6-[((3R)oxolan-3-yl)amino]purin-9-yl}(3 S,2R,4R)-3,4-dihydroxyoxolan-2-yl)methoxy]-N-methylcarboxamide]
IC50 (absence of GTP): 0.18 µM | IC50 (presence of 1 mM GTP): 9.5 µM | IC50 (presence of 1 mM GTP and 0.1 mM N-ethylmaleimide): 15 µM | Ki (absence of GTP): 0.062 µM | Ki (presence of 1 mM GTP): 3.3 µM | Hill slope (absence of GTP): 0.87 | IC50 with GTP and N-ethylmaleimide relative to GTP alone (adipocyte membranes): 1.6 fold | Hill slope (presence of 1 mM GTP): 1.0 | difference of IC50 in absence and presence of GTP (rat, adipocyte membranes): 53 fold
